Experimental data: ChEMBL document CHEMBL1201862, “PubChem BioAssay data set” (2004)
The source made the active and inactive calls.

Tests used:
Troponin, cardiac muscle = Troponin, cardiac muscle (Homo sapiens, UniProt P19429+P45379+P63316); experiment: Fluorescence-based biochemical high throughput dose response assay for activators of the calcium sensitivity of cardiac Regulated Thin Filaments (RTF). [Related pubchem assays (depositor defined):AID493008, AID493018, AID504382, AID504383]; assay type: protein-complex assay
[1] = biological target: T1, Short transient receptor potential channel 4 (Mus musculus, UniProt Q9QUQ5); experiment: calcium entry via TRPC4 opening agents – cell-based, HEK293 TRPC4/mu-opioid, Fluo-4 calcium, dose response (AID 434937); assay type: functional
T1 sequence (Q9QUQ5 whole entry): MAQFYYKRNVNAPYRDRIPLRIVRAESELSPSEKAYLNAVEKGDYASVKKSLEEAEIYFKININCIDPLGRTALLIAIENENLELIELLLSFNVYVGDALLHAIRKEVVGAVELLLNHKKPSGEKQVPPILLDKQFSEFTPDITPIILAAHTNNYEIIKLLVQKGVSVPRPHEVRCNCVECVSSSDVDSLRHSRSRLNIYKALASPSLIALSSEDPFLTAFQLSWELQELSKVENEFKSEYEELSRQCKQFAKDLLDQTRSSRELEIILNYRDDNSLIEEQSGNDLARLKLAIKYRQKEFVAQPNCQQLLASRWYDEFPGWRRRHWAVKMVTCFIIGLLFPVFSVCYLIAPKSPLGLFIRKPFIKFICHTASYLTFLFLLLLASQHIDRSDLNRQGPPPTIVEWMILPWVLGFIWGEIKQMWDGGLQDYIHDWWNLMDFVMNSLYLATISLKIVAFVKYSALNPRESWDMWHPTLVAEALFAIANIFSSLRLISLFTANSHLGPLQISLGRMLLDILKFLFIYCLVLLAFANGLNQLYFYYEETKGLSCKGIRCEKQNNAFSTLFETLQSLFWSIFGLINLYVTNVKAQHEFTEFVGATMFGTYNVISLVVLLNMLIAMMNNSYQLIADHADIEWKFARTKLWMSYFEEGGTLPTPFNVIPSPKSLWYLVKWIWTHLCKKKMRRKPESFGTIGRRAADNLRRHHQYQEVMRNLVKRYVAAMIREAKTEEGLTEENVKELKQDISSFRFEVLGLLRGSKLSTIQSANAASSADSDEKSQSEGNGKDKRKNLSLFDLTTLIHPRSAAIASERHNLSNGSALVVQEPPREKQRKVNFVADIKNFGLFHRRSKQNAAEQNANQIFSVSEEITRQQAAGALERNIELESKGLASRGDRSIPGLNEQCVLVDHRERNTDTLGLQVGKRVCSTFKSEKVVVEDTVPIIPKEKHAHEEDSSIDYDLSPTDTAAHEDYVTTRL

[2] = test system: Streptococcus sp. 'group A'; experiment: Streptococcus pyogenes SK(-)GAS viability under kanamycin – luminescence, BacTiterGlo, confirmation, counter-screen for streptokinase expression inhibitor project, dose response (AID 1900); assay type: functional, organism-based
[3] = biological target: T1, Short transient receptor potential channel 4; experiment: block of DAMGO-driven TRPC4 calcium entry – cell-based, HEK293 TRPC4/mu-opioid, Fluo-4 calcium, dose response (AID 434942); assay type: functional;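 note: potency of inhibitors blocking the TRPC4 calcium response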
Streptococcus = experiment: GAS UMAA2166 growth inhibition – luminescence, BacTiterGlo, counter-screen for streptokinase expression inhibitor project, dose response (AID 1915); assay type: functional, organism-based;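 note: potency for reduction of bacterial viability or growth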
CAAX prenyl protease 2 [4] = biological target: T2, CAAX prenyl protease 2 (Homo sapiens, UniProt Q9Y256); experiment: inhibition of Ras-converting CAAX protease Rce1 – biochemical, yeast membranes, quenched-peptide fluorescence, cherry-pick, dose response (AID 588849)
T2 sequence (Q9Y256 whole entry): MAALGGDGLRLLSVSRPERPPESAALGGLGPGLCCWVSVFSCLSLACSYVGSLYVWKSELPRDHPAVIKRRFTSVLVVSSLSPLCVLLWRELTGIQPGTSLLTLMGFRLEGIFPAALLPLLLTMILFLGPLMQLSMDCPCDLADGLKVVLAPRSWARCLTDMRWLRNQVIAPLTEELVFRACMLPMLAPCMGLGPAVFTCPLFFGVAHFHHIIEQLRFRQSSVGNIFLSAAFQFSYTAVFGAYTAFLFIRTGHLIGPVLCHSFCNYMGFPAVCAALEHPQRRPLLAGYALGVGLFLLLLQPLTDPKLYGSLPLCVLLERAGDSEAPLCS

CAAX prenyl protease 2 [5] = biological target: T3, CAAX prenyl protease 2 (Saccharomyces cerevisiae S288c, UniProt Q03530); assay type: biochemical
T3 sequence (Q03530 whole entry): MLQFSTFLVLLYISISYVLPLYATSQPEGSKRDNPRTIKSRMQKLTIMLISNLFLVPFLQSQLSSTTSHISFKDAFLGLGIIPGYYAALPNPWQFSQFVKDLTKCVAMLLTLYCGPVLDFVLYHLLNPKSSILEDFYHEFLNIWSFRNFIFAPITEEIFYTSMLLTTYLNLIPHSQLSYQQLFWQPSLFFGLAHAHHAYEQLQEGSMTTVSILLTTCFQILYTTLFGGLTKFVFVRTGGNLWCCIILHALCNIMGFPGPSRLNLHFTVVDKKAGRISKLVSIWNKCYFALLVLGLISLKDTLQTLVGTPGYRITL

Streptokinase A = biological target: T4, Streptokinase A (Streptococcus pyogenes serotype M1, UniProt P10520); experiment: viability-normalized secreted streptokinase activity reduction – plasminogen activation absorbance, OD405, dose response (AID 1914); assay type: functional, Streptococcus pyogenes M1 GAS;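 note: secreted streptokinase activity via plasminogen activation per viability signal from cell pellet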
T4 sequence (P10520 whole entry): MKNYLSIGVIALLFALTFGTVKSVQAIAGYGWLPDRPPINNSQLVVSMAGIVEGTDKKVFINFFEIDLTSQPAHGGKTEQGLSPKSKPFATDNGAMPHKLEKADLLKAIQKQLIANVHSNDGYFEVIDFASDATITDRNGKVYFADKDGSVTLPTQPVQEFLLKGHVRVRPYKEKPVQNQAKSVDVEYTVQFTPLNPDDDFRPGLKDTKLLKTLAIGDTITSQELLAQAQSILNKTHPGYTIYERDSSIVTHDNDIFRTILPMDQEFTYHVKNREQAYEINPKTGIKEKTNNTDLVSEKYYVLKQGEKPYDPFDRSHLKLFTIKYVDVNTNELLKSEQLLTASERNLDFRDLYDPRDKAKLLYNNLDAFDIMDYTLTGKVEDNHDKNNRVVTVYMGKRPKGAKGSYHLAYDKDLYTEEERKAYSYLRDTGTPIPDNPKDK

HEK293 [6] = experiment: inhibition of NOD1-driven NF-kB reporter – cell-based, luminescence, uHTS, primary screen (AID 1578); assay type: functional; conditions: Homo sapiens
[7] = biological target: T5, COUP transcription factor 2 (Homo sapiens, UniProt P24468); experiment: Luminescence-based cell-based high throughput dose response assay to identify inhibitors of COUP-TFII (NR2F2).; assay type: functional;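 note: HEK293 cells transiently cotransfected with COUP-TFII expression vector and reporter; luciferase reporter luminescence driven by COUP-TFII from the pX2-168 reporter plasmid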
T5 sequence (P24468 whole entry): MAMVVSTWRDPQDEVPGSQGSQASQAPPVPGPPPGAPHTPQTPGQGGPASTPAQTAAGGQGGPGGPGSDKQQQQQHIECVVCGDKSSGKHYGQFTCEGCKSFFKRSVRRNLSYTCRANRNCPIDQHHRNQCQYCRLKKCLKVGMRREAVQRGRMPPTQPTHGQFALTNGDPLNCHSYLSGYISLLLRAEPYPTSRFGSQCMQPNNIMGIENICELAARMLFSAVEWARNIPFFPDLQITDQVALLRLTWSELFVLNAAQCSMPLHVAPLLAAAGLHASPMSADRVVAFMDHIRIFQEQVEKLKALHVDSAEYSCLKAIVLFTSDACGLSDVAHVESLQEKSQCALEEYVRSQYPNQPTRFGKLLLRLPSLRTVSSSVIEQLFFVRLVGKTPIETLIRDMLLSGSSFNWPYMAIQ

[8] = HEK-293T cell viability reduction – luminescence, B-cell screen hits, cytotoxicity control for BCR NF-kB inhibitor project, dose response (AID 489021); assay type: functional, cell-based;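 note: HEK-293T cells carrying an NF-kB luciferase reporter; cells exposed to compound for about 14 hours before viability readout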
HEK293 [9] = experiment: cells; assay type: functional, cell-based; conditions: Homo sapiens
HEK293 [10] = experiment: NOD2 signaling inhibitors in MDP-stimulated cells, cell-based, uHTS, luminescence (AID 2001); assay type: functional; conditions: Homo sapiens
HEK293 [11] = experiment: cells; assay type: functional, cell-based; conditions: Homo sapiens; remark: listed apart in the source
INS1 = experiment: INS-1E survival protection against cytokine death – cell-based, luminescence, retest, dose response (AID 449756); assay type: functional; conditions: Rattus norvegicus;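 note: cell death triggered by IL-1 beta plus TNF-alpha plus IFN-gamma mixture; protective hits raise ATP signal compared with cytokine alone wells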
Tumor necrosis factor = Tumor necrosis factor (Homo sapiens, UniProt P01375); experiment: analog potency on TNFa NF-kB signaling – cell-based, revised, SAR follow-up (AID 2337); assay type: functional
Chain of Tumor necrosis factor (P01375 whole entry): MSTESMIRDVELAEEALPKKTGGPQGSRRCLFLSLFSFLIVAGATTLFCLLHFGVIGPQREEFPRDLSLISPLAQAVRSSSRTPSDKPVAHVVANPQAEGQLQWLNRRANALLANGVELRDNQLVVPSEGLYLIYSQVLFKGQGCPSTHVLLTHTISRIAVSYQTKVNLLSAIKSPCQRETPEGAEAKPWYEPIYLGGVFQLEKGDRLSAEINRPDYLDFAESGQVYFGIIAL

HEK293 [12] = experiment: cells; conditions: Homo sapiens
[13] = biological target: T6, Nucleotide-binding oligomerization domain-containing protein 1 (Homo sapiens, UniProt Q9Y239); experiment: blockers of NOD1 pathway activity – revised, SAR follow-up (AID 2333); assay type: functional
T6 sequence (Q9Y239 whole entry): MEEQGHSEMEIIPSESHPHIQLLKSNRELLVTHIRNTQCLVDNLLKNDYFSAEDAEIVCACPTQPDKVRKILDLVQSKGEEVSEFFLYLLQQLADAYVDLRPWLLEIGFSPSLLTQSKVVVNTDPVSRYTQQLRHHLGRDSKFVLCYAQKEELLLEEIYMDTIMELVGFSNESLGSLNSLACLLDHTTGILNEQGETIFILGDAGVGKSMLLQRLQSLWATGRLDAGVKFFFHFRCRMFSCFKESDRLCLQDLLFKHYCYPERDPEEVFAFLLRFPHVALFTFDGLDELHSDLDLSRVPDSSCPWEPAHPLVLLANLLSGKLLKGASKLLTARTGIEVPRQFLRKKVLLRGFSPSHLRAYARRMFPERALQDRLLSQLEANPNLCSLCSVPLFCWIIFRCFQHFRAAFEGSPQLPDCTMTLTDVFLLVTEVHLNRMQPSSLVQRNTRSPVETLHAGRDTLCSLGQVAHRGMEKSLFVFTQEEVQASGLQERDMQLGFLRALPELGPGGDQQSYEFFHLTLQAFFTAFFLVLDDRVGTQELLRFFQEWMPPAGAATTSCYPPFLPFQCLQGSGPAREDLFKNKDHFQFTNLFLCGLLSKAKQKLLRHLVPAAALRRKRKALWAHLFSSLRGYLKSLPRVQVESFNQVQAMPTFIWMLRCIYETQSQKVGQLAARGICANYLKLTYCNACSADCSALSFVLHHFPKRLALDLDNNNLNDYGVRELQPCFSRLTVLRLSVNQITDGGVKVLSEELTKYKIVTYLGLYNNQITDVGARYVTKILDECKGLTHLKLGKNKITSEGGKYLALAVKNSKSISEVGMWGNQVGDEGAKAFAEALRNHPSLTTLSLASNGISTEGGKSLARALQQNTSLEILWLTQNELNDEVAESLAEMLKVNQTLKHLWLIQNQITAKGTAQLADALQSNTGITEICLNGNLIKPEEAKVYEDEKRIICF

Cn1cnnc1Sc1nc2ccccc2nc1NS(=O)(=O)c1ccccc1
EC50 (Troponin, cardiac muscle): > 71.5 µM (inactive)

Cc1ccc(C)c(C(=O)CSc2nnc(C(C)C)[nH]2)c1
EC50 (Troponin, cardiac muscle): > 71.5 µM (inactive)

Cc1cccn2c(=O)c(/C=C3\SC(=S)N(CC(C)C)C3=O)c(NCCCOC(C)C)nc12
EC50 (Troponin, cardiac muscle): 0.287 µM (active)

O=C(NC(=S)NNC(=O)c1ccco1)c1ccc(Br)cc1
EC50 [1]: 5.96 µM (active) | EC50 [2]: 1.03 µM (active) | EC50 [3]: 13.3 µM (active) | EC50 (Streptococcus): 2.16 µM (active)

CCOc1ccc(-c2nc(CCl)cs2)cc1OC
AC50 (CAAX prenyl protease 2 [4]): > 100 µM (inactive)

COc1ccc(-n2nc(C(=O)NCC(=O)N3CCC(C)CC3)c3ccccc3c2=O)cc1
AC50 (CAAX prenyl protease 2 [5]): 3.87 µM (active)

C=C(C)CSc1nc2sc3c(c2c(=O)n1-c1ccc(OC)cc1)CCN(C)C3
AC50 (CAAX prenyl protease 2 [5]): 3.45 µM (active)

COc1ccc(-c2oc3ncn(Cc4ccco4)c(=N)c3c2-c2ccc(OC)cc2)cc1
EC50 [2]: 6.01 µM (active) | AC50 (CAAX prenyl protease 2 [4]): 79.2 µM (active) | EC50 (Streptokinase A): 14.8 µM (active) | EC50 (Streptococcus): > 150 µM (not active)

COc1ccc(NS(=O)(=O)c2ccc(-c3coc(C)n3)cc2)cc1OC
EC50 (HEK293 [6]): 1.1 µM (active) | IC50 [7]: 5.85 µM (active) | IC50 [8]: > 80 µM (inactive) | IC50 (HEK293 [9]): > 20 µM (inactive) | IC50 (HEK293 [10]): 6.82 µM (active) | IC50 (HEK293 [11]): 4.75 µM (active) | AC50 (INS1): 2.88 µM (active)

COc1ccc(-c2nc(CN3CCN(c4ncnc5ccccc45)CC3)c(C)o2)cc1
IC50 (Tumor necrosis factor): 4.08 µM (active) | IC50 (HEK293 [12]): 11.9 µM (active) | IC50 [13]: 3.13 µM (active)

CCC(=O)N1c2ccc(S(=O)(=O)N3CCN(c4ccc(C(C)=O)cc4)CC3)cc2CC1C (stereo not drawn)
IC50 (Tumor necrosis factor): 1.63 µM (active) | IC50 (HEK293 [12]): 14.7 µM (active) | IC50 [13]: 2 µM (active)

CS(=O)(=O)Cc1ccc(C(=O)N(CCc2ccccc2)Cc2ccccc2)cc1
AC50 (CAAX prenyl protease 2 [4]): 35.8 µM (active)
